Test results from ChEMBL document CHEMBL3870355, “Biological Evaluation in Vitro and in Silico of Azetidin-2-one Derivatives as Potential Anticancer Agents” (ACS Med Chem Lett, 2017).
Active and inactive are the calls of the source. The rule behind the calls is not given here.

Legend:
[1] = Cytotoxicity against human SiHa cells by MTT assay; type: functional, cell-based
[2] = Cytotoxicity against mouse B16F10 cells by MTT assay; type: functional, cell-based; conditions: B16-F10
[3] = Cytotoxicity against human Chang cells by MTT assay; type: toxicity, cell-based
[4] = system: B16-F10; assay: Induction of apoptosis in mouse B16F10 cells assessed as caspase-3 activation using Ac-DEVD-pNA as substrate by spectrophotometric analysis; type: functional
[5] = system: B16-F10; assay: Induction of changes in cell death related gene expression in mouse B16F10 cells by GenArise analysis; type: functional, cell-based
[6] = system: B16-F10; assay: Induction of changes in cytoskeleton and cell division processes related gene expression in mouse B16F10 cells by GenArise analysis; type: functional, cell-based
[7] = system: B16-F10; assay: Effect on tubulin gene expression in mouse B16F10 cells by GenArise analysis; type: functional, cell-based
[8] = system: B16-F10; assay: Induction of apoptosis in mouse B16F10 cells assessed as formation of organized shedding vesicles by microscopic analysis; type: functional, cell-based

| Compound | IC50 [1] | IC50 [2] | IC50 [3] | Activity [4] | Activity [5] | Activity [6] | Activity [7] | Activity [8] |
| --- | --- | --- | --- | --- | --- | --- | --- | --- |
| COc1ccc(N2C(=O)[C@@H](Oc3ccccc3)[C@H]2c2ccccc2[N+](=O)[O-])cc1 | 220 nM | 4820 nM | 3730 nM | – | – | – | – | – |
| O=C1C(Oc2ccccc2)C(c2ccncc2)N1c1nc2ccccc2s1 (racemic) | 1340 nM | 1700 nM | 1030 nM | – | – | – | – | – |
| O=C1C(Oc2ccccc2)C(c2ccco2)N1c1nc2ccccc2s1 (racemic) | 330 nM | 340 nM | 17 nM | 93% | – | – | – | – |
| O=C1C(Oc2ccccc2)C(c2ccc(Cl)cc2)N1c1nc2ccccc2s1 (racemic) | 90 nM | 310 nM | 230 nM | – | – | – | – | – |
| O=C1C(Oc2ccccc2)C(c2ccc([N+](=O)[O-])cc2)N1c1nc2ccccc2s1 (racemic) | 120 nM | 450 nM | 70 nM | – | – | – | – | – |
| COc1ccc(N2C(=O)[C@@H](Oc3ccccc3)[C@H]2c2ccc(C)cc2)cc1 (relative stereo) | 70 nM | 1210 nM | > 10000 nM | 100% | Active | Active | Active | Active |
| COc1ccc(N2C(=O)[C@@H](OC)[C@H]2c2ccc([N+](=O)[O-])cc2)cc1 (relative stereo) | 8130 nM | 2080 nM | > 10000 nM | 88% | – | – | – | – |
| COc1ccc(N2C(=O)[C@@H](OC)[C@H]2c2ccccc2[N+](=O)[O-])cc1 (relative stereo) | 7290 nM | 2910 nM | 9750 nM | – | – | – | – | – |
| COc1ccc(N2C(=O)[C@@H](OC)[C@H]2c2ccc(C)cc2)cc1 (relative stereo) | 730 nM | 4120 nM | 3920 nM | – | – | – | – | – |
| COc1ccc([C@@H]2[C@H](OC)C(=O)N2c2ccc(OC)cc2)cc1 (relative stereo) | 6360 nM | 2050 nM | 8380 nM | – | – | – | – | – |
| COc1ccc([C@@H]2[C@H](Oc3ccccc3)C(=O)N2c2ccc(OC)cc2)cc1 (relative stereo) | 420 nM | 9700 nM | 630 nM | – | – | – | – | – |
| COc1ccc(N2C(=O)[C@@H](OC)[C@H]2c2ccc(Cl)cc2)cc1 (relative stereo) | 8610 nM | > 10000 nM | 3410 nM | – | – | – | – | – |
| COc1ccc(N2C(=O)[C@@H](Oc3ccccc3)[C@H]2c2ccc([N+](=O)[O-])cc2)cc1 (relative stereo) | 3640 nM | 870 nM | 2080 nM | – | – | – | – | – |
| COc1ccc(N2C(=O)[C@@H](OC)[C@H]2c2ccc(F)cc2)cc1 (relative stereo) | 2890 nM | 2820 nM | 7570 nM | – | – | – | – | – |
| COc1ccc(N2C(=O)[C@@H](Oc3ccccc3)[C@H]2c2ccc(F)cc2)cc1 (relative stereo) | 80 nM | 3260 nM | 740 nM | – | – | – | – | – |
| COc1ccc(N2C(=O)[C@@H](Oc3ccccc3)[C@H]2c2ccccc2)cc1 (relative stereo) | 200 nM | 280 nM | 2850 nM | – | – | – | – | – |
| COc1cc([C@@H]2c3cc4c(cc3[C@H](O)[C@H]3COC(=O)[C@H]23)OCO4)cc(OC)c1OC [PODOFILOX] | – | – | – | 100% | – | – | – | Active |
| CC[C@]1(O)C[C@H]2CN(CCc3c([nH]c4ccccc34)[C@@](C(=O)OC)(c3cc4c(cc3OC)N(C=O)[C@H]3[C@@](O)(C(=O)OC)[C@H](OC(C)=O)[C@]5(CC)C=CCN6CC[C@]43[C@@H]65)C2)C1 [VINCRISTINE] | 10 nM | 10 nM | 10 nM | – | – | – | – | – |
